Test results taken from patent US20230236193A1, “[…] FOR S[…]” (VANDERBILT UNIVERSITY, priority 2020, published 2023).
≈ marks a conversion by molar mass, not a printed value.

T1: HsaSiglec+Unique (SLBRHsa, GST fusion), wild-type, Streptococcus gordonii strain Challis (Streptococcus gordonii, UniProt A8AWU7)
T1 construct: the Siglec and Unique domains of Hsa; made in house
T1 sequence (A8AWU7 220-449 limits assumed): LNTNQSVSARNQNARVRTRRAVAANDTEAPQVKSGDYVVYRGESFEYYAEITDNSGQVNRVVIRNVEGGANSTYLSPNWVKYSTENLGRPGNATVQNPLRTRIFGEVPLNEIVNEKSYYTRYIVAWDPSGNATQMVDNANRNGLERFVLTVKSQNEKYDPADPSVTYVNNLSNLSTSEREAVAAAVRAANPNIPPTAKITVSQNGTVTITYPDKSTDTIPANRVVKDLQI

T2: UB10712Siglec+Unique (SLBRUB10712, GST fusion), S. gordonii strain UB10712, variant E285R (Streptococcus mitis, UniProt A0A6I8WFK9)
T2 sequence (A0A6I8WFK9 1-210): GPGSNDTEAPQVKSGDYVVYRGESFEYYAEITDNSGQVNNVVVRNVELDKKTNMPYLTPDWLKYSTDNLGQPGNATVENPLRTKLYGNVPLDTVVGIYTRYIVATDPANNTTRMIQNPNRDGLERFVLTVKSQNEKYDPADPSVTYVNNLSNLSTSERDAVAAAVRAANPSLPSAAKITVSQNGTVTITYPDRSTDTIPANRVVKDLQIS

B1: GspBSiglec+Unique: wild-type Siglec and Unique domains of GspB from S. gordonii strain M99 (protein)
chain: DTERPVVNVPSEITVYRGESFEYFATVTDNSNAFDLAKTVVRWLYNNQPGRGTEWLQYSVTQVGNQLKVRIFGNVPIDTTIGDYTRYVVATDAAGNVNATQTEMGNAAVDKTSVNGQFKLIIRFRIKTPENTVFVNNPNQLTEVEKNLVREAVKKSNPDLRAQDVLNSNYVTGITVSNNGTTTITYRDGRKDIIDGSKFIDTR

What was measured:
[1] = tested on: UB10712Siglec+Unique (SLBRUB10712, GST fusion), S. gordonii strain UB10712, chimera +Hsa CD loop; assay: ELISA, biotinylated sialoglycan binding to immobilized GST-adhesin chimera; parameters: species or system Streptococcus gordonii strain UB10712; conditions: +SLBRHsa CD loop; one-point, 1-2 μg/ml biotinylated glycans
From the text: (§1) 21. FIGS. 11A, and 11B show chimeras of SRR adhesins. […] Values correspond to the mean±standard deviation, with n=2 (wt) or n=3 (variants). […] Values correspond to the mean±standard deviation, with n=2 (wt) or n=3 (variants).

[2] = tested on: UB10712Siglec+Unique (SLBRUB10712, GST fusion), S. gordonii strain UB10712, chimera +Hsa EF loop; assay: as above; parameters: species or system Streptococcus gordonii strain UB10712; conditions: +SLBRHsa EF loop; one-point, 1-2 μg/ml biotinylated glycans
From the text: as §1

[3] = tested on: UB10712Siglec+Unique (SLBRUB10712, GST fusion), S. gordonii strain UB10712, chimera +Hsa FG loop; assay: as above; parameters: species or system Streptococcus gordonii strain UB10712; conditions: +SLBRHsa FG loop; one-point, 1-2 μg/ml biotinylated glycans
From the text: as §1

[4] = tested on: SK678Siglec+Unique (SLBRSK678, GST fusion), S. sanguinis strain SK678, chimera +Hsa EF loop; assay: as above; parameters: species or system Streptococcus sanguinis strain SK678; conditions: +SLBRHsa EF loop; one-point, 1-2 μg/ml biotinylated glycans
From the text: as §1

[5] = tested on: SK678Siglec+Unique (SLBRSK678, GST fusion), S. sanguinis strain SK678, chimera +Hsa CD loop; assay: as above; parameters: species or system Streptococcus sanguinis strain SK678; conditions: +SLBRHsa CD loop; one-point, 1-2 μg/ml biotinylated glycans
From the text: as §1

[6] = tested on: SK678Siglec+Unique (SLBRSK678, GST fusion), S. sanguinis strain SK678, chimera +Hsa FG loop; assay: as above; parameters: species or system Streptococcus sanguinis strain SK678; conditions: +SLBRHsa FG loop; one-point, 1-2 μg/ml biotinylated glycans
From the text: as §1

[7] = target: SK678Siglec+Unique (SLBRSK678, GST fusion), S. sanguinis strain SK678, variant E298R; assay: ELISA, biotinylated sialoglycan binding to immobilized GST-adhesin; conditions: for EC50: ELISA curves; for binding selectivity: ELISA
[8] = target: SK678Siglec+Unique (SLBRSK678, GST fusion), wild-type, Streptococcus sanguinis strain SK678; assay: as above; conditions: ELISA curves
From the text: (§2) 20. FIGS. 10A, 10B, 10C, 10D, and 10E show chimeragenesis of Hsa-like adhesins. Dose-response curves of 10A wild-type GST-SK678Siglec+Unique, 10B wild-type GST-UB10712Siglec+Unique, and 10C wild-type GST-HsaSiglec+Unique to five selected ligands. D and E. Dose-response curves of the chimeras D. GST-SK678^Hsa-loops and E. UB10712^Hsa-loops which contain the CD, EF, and FG loops of Hsa.

[9] = target: T1, HsaSiglec+Unique (SLBRHsa, GST fusion), wild-type, Streptococcus gordonii strain Challis; assay: as above; conditions: ligands chosen for costructures
Experimental: (§3) 19. FIGS. 9A, 9B, 9C, and 9D show the impact of flexibility of sialoglycan binding by HsaBR. […] As a note, Hsa^S253 contains Ramachandran angles in the generously allowed region. FIGS. 9B, 9C, and 9D show dose response curves of wild-type and variant GST-HsaSiglec+Unique (500 nM) immobilized in 96-well plates and binding to 9B. the Neu5Ac-Gal disaccharide, 9C. sialyl-T antigen, and 9D. 3′sialyl-N-acetyllactosamine. Biotinylated sialoglycan ligands were added at the indicated concentrations. Binding is reported as the mean±standard deviation, with n=2.
as §2

[10] = target: SK678Siglec+Unique (SLBRSK678, GST fusion), S. sanguinis strain SK678, variant Q367D; assay: as above; conditions: ELISA curves
Experimental: Dose response curves of biotin-glycan binding to immobilized variant SLBRs (500 nM). […] Measurements were performed using 500 nM of immobilized GST-adhesin and the indicated concentrations of each ligand are shown as the mean±SD (n=2).
(§4) DNA encoding wild-type and variant adhesins were cloned into pGEX-3X. […] DNA encoding adhesin chimeras were cloned into pGEX-3X.
(§5) The pGEX vectors encode an N-terminal glutathione S-transferase (GST) affinity tag, which was used for purification. Individual GST-Siglec+Unique fusions were expressed and purified using glutathione-sepharose, and the binding of biotinylated glycans to immobilized GST-binding regions was performed.

[11] = target: T2, UB10712Siglec+Unique (SLBRUB10712, GST fusion), S. gordonii strain UB10712, variant E285R; assay: as above
Experimental: as §4, §5

[12] = previously reported glycan binding/array; cited from earlier work
[13] = ELISA: sialoglycan binding spectrum of wild-type, chimeric and variant adhesins (several ligands, in words); conditions: 500 nM immobilized GST-adhesin, compared with wild-type/parent
Experimental: as §3, §2, §1

human plasma proteins = assay: Far-western blotting of human plasma proteins with GST-binding regions; conditions: 15 nM probe
Experimental: Each Far Western was performed at least twice, with a representative blot shown.
Far-western blotting of human plasma proteins using the indicated GST-binding regions (15 nM) as probes was performed as described.

Molecule	relative binding strength (A450) [1]	relative binding strength (A450) [2]	relative binding strength (A450) [3]	relative binding strength (A450) [4]	relative binding strength (A450) [5]	relative binding strength (A450) [6]	EC50 [7] [µg/mL]	EC50 [8] [µg/mL]	ligand affinity class [9]	EC50 [10] [µg/mL]	binding selectivity [7]	binding selectivity [11]	reported sialoglycan selectivity of wild-type adhesin [12]	change of sialoglycan binding and selectivity [13]	plasma glycoprotein bound (human plasma proteins)
CC(=O)N[C@H]1[C@H]([C@H](O)[C@H](O)CO)O[C@@](O[C@H]2[C@@H](O)[C@@H](CO)O[C@@H](O[C@H]3[C@H](O)[C@@H](NC(C)=O)C(O)O[C@@H]3CO)[C@@H]2O)(C(=O)O)C[C@@H]1O (some centres unmarked) [3′sLn, Neu5Acα2-3Galβ1-4GlcNAc]	++ (A450 = 0.7-1)	+++ (A450 > 1)	++ (A450 = 0.7-1)	++ (A450 = 0.7-1)	− (A450 < 0.3)	+ (A450 = 0.3-0.7)	2.60 (≈ 3.85 µM)	0.85 (≈ 1.26 µM)	intermediate-affinity	>5					
CC(=O)N[C@H]1[C@H]([C@H](O)[C@H](O)CO)O[C@@](O[C@H]2[C@@H](O)[C@@H](CO)O[C@@H](O[C@H]3[C@H](O)[C@@H](NC(C)=O)C(O)O[C@@H]3COS(=O)(=O)O)[C@@H]2O)(C(=O)O)C[C@@H]1O (stereo partly drawn) [6S-3′sLn]											became selective	became selective			
CC(=O)N[C@H]1[C@H]([C@H](O)[C@H](O)CO)O[C@@](O[C@H]2[C@@H](O)[C@@H](CO)O[C@@H](O[C@H]3[C@H](O[C@@H]4O[C@@H](C)[C@@H](O)[C@@H](O)[C@@H]4O)[C@@H](NC(C)=O)C(O)O[C@@H]3COS(=O)(=O)O)[C@@H]2O)(C(=O)O)C[C@@H]1O (stereo partly drawn) [6S-sLe^X]	+++ (A450 > 1)	+++ (A450 > 1)	+ (A450 = 0.3-0.7)	++ (A450 = 0.7-1)	− (A450 < 0.3)	− (A450 < 0.3)	0.06 (≈ 0.0666 µM)	0.63 (≈ 0.699 µM)	low-affinity	>5	became selective	became selective			
CC(=O)N[C@H]1[C@H]([C@H](O)[C@H](O)CO)O[C@@](O[C@H]2[C@@H](O)[C@@H](CO)O[C@@H](O[C@H]3[C@H](O)[C@@H](CO)OC(O)[C@@H]3NC(C)=O)[C@@H]2O)(C(=O)O)C[C@@H]1O (some centres unmarked) [sLe^C, Neu5Acα2-3Galβ1-3GlcNAc]	− (A450 < 0.3)	+ (A450 = 0.3-0.7)	+ (A450 = 0.3-0.7)	− (A450 < 0.3)	− (A450 < 0.3)	− (A450 < 0.3)	>5	>5	high-affinity	>5					
CC(=O)N[C@H]1[C@H]([C@H](O)[C@H](O)CO)O[C@@](O[C@H]2[C@@H](O)[C@@H](CO)O[C@@H](O[C@H]3[C@@H](O)[C@@H](CO)OC(O)[C@@H]3NC(C)=O)[C@@H]2O)(C(=O)O)C[C@@H]1O (some centres unmarked) [sTa, Neu5Acα2-3Galβ1-3GalNAc]	+ (A450 = 0.3-0.7)	+ (A450 = 0.3-0.7)	++ (A450 = 0.7-1)	− (A450 < 0.3)	− (A450 < 0.3)	− (A450 < 0.3)	>5	>5	high-affinity	>5					
B1													narrow selectivity for the sTa trisaccharide	binding preference for sTa	sTa-modified proteoglycan 4
